Results on five compounds are retold here after patent publication EP0908457B1, “3-(1,2-benzisothiazol- and isoxazol-5-Y1)-2,4(1H,3H)-pyrimidinedione or thione and 3-(1,2-benzisothiazol- and isoxazol-5-y1)-4(3H)-pyrimidinone or thione herbicidal agents” (BASF AKTIENGESELLSCHAFT, priority 1997, dated 1999).

Data set [1] relates to Echinochloa oryzoides (Ard.) Fritsch. In words: Preemergence weed control under flooded paddy conditions, ECHORC (Watergrass (Calif.)). On herbicidal effect rating, ECHORC: meaning of each grade not given here. The class given is in vivo. As to conditions: flooded paddy, rated three to four weeks after treatment.
In a further data set the test system is Cyperus iria. Description: Preemergence weed control under flooded paddy conditions, CYPIR (Rice Flatsedge). On herbicidal effect rating, CYPIR: meaning of each grade not given here. The class given is in vivo. As to conditions: flooded paddy, rated three to four weeks after treatment.
In data set [2] the test system is Cyperus serotinus, Rottb. Description: Preemergence weed control under flooded paddy conditions, CYPSE (Flatsedge). On herbicidal effect rating, CYPSE: meaning of each grade not given here. The class given is in vivo. As to conditions: rated three to four weeks after treatment.
The subject of data set [3] is Monochoria vaginalis, Presl. In words: Preemergence weed control under flooded paddy conditions, MOOVA (Monochoria). On herbicidal effect rating, MOOVA: meaning of each grade not given here. Type of data set: in vivo. The settings on record: flooded paddy, rated three to four weeks after treatment.
The next data set has as its system Sagittaria pygmaea, L. In words: Preemergence weed control under flooded paddy conditions, SAGPY (Arrowhead (Pygmaea)). On herbicidal effect rating, SAGPY: meaning of each grade not given here. The settings on record: flooded paddy, rated three to four weeks after treatment. The class given is in vivo.
Data set [4] relates to Oryza sativa, (L.) Tebonnet. In words: Rice tolerance to post-transplant applications under flooded paddy conditions (Example 187), ORYSAT (Rice, Tebonnet). The settings on record: rated three to four weeks after treatment.
Where [5] appears, read: Rate 0.0320 kg/ha, preemergence.
Where [6] appears, read: Rate 0.0620 kg/ha, preemergence.
Where [7] appears, read: Rate 0.1250 kg/ha, preemergence.
Where [8] appears, read: Rate 0.2500 kg/ha, preemergence.
Where [9] appears, read: Rate 0.0320 kg/ha, preemergence weeds.
Setting [10] is: Rate 0.0620 kg/ha, preemergence weeds.
Where [11] appears, read: Rate 0.1250 kg/ha, preemergence weeds.
[12] abbreviates: Rate 0.2500 kg/ha, preemergence weeds.

As for `Cn1c(C(F)(F)F)cc(=O)n(-c2ccc3snc(C(C#N)=Cc4ccco4)c3c2)c1=O` [Example 594, 1,2-Benzisothiazole-3-acetonitrile, 5-[3,6-dihydro-3-methyl-2,6-dioxo-4-(trifluoromethyl)-1(2H)-pyrimidinyl]-alpha-furfurylidene-], the “herbicidal effect rating, ECHORC” value is recorded as 3.0 in data set [1] (setting [5]), 5.0 in data set [1] (setting [6]), 6.0 in data set [1] (setting [7]) and 7.0 in data set [1] (setting [8]). Moreover, the “herbicidal effect rating, CYPIR” value in the data set with Cyperus iria (setting [5]) stood at 3.0; in the data set on Cyperus iria (setting [6]), 5.0; with Cyperus iria (setting [7]) it was 5.0; in the data set with Cyperus iria (setting [8]), 9.0. For the same compound, the “herbicidal effect rating, CYPSE” value in data set [2] (setting [5]) was 0.0. Besides, the “herbicidal effect rating, MOOVA” value is 6.0 in data set [3] (setting [5]), 7.0 in data set [3] (setting [6]), 9.0 in data set [3] (setting [7]) and 9.0 in data set [3] (setting [8]). The “herbicidal effect rating, SAGPY” value with Sagittaria pygmaea, L. (setting [5]) came to 2.0; in the data set with Sagittaria pygmaea, L. (setting [6]) it was 4.0; with Sagittaria pygmaea, L. (setting [7]), 5.0. Also, the “herbicidal effect rating ORYSAT” value in data set [4] (Rate 0.0320 kg/ha) is 1.0; in data set [4] (Rate 0.0620 kg/ha), 2.0; in data set [4] (Rate 0.1250 kg/ha), 2.0; in data set [4] (Rate 0.2500 kg/ha) it was 3.0.

Consider `COC(=O)COc1cccc(-c2nsc3ccc(-n4c(=O)cc(C(F)(F)F)n(C)c4=O)cc23)c1` [Example 332, Acetic acid, {m-{5-[3,6-dihydro-3-methyl-2,6-dioxo-4-(trifluoromethyl)-1(2H)-pyrimidinyl]-1,2-benzisothiazol-3-yl}phenoxy}-, methyl ester], for which the “herbicidal effect rating, ECHORC” value in data set [1] (setting [9]) was 6.5; in data set [1] (setting [10]), 8.5; in data set [1] (setting [11]) it was 9.0; in data set [1] (setting [12]), 9.0. The “herbicidal effect rating, CYPIR” value in the data set on Cyperus iria (setting [9]), in the data set on Cyperus iria (setting [10]), in the data set on Cyperus iria (setting [11]) and in the data set with Cyperus iria (setting [12]) was 9.0 in each case. The “herbicidal effect rating, CYPSE” value was found to be 4.0 in data set [2] (setting [9]), 4.5 in data set [2] (setting [10]), 4.5 in data set [2] (setting [11]) and 7.5 in data set [2] (setting [12]). For the same compound, the “herbicidal effect rating, MOOVA” value in data set [3] (setting [9]), in data set [3] (setting [10]), in data set [3] (setting [11]) and in data set [3] (setting [12]) was 9.0 each time. The “herbicidal effect rating, SAGPY” value in the data set on Sagittaria pygmaea, L. (setting [9]) stood at 3.0; in the data set with Sagittaria pygmaea, L. (setting [10]), 3.5; with Sagittaria pygmaea, L. (setting [11]), 6.5; in the data set on Sagittaria pygmaea, L. (setting [12]), 9.0. In addition, the “herbicidal effect rating ORYSAT” value was 5.5 in data set [4] (Rate 0.0320 kg/ha), 5.5 in data set [4] (Rate 0.0620 kg/ha), 5.5 in data set [4] (Rate 0.1250 kg/ha) and 7.5 in data set [4] (Rate 0.2500 kg/ha).

For the compound `Cc1ccc(OCC(=O)NS(=O)(=O)c2sc(C)nc2C)c(-c2nsc3ccc(-n4c(=O)cc(C(F)(F)F)n(C)c4=O)cc23)c1` [Example 288, Acetamide, 2-{{2-{5-[3,6-dihydro-3-methyl-2,6-dioxo-4-(trifluoromethyl)-1(2H)-pyrimidinyl]-1,2-benzisothiazol-3-yl}-p-tolyl}oxy}-N-[(2,4-dimethylthiazol-5-yl)sulfonyl]-], the “ECHORC herbicidal effect rating” value in data set [1] (setting [5]) was found to be 0.0; in data set [1] (setting [6]) it was 0.0; in data set [1] (setting [7]) it was 4.0; in data set [1] (setting [8]), 5.0. For the same compound, the “CYPIR herbicidal effect rating” value in the data set with Cyperus iria (setting [5]) is recorded as 0.0; with Cyperus iria (setting [6]), 0.0; in the data set on Cyperus iria (setting [7]), 4.0; in the data set on Cyperus iria (setting [8]) it was 6.0. The “CYPSE herbicidal effect rating” value in data set [2] (setting [5]), in data set [2] (setting [6]), in data set [2] (setting [7]) and in data set [2] (setting [8]) was 0.0 each time. For the same compound, the “MOOVA herbicidal effect rating” value in data set [3] (setting [5]) worked out at 0.0; in data set [3] (setting [6]), 0.0; in data set [3] (setting [7]) it was 3.0; in data set [3] (setting [8]), 6.0. In addition, the “SAGPY herbicidal effect rating” value with Sagittaria pygmaea, L. (setting [5]) is 0.0; in the data set with Sagittaria pygmaea, L. (setting [6]) it was 0.0; with Sagittaria pygmaea, L. (setting [7]), 0.0; with Sagittaria pygmaea, L. (setting [8]) it was 0.0. Besides, the “ORYSAT herbicidal effect rating” value in data set [4] (Rate 0.0320 kg/ha) is 0.0; in data set [4] (Rate 0.0620 kg/ha), 0.0; in data set [4] (Rate 0.1250 kg/ha), 1.0; in data set [4] (Rate 0.2500 kg/ha), 2.0.

As for `COC(=O)C(C)Oc1cccc(-c2nsc3ccc(-n4c(=O)cc(C(F)(F)F)n(C)c4=O)cc23)c1` (centres unmarked) [Example 325, Propionic acid, 2-{m-{5-[3,6-dihydro-3-methyl-2,6-dioxo-4-(trifluoromethyl)-1-(2H)-pyrimidinyl]-1,2-benzisothiazol-3-yl}phenoxy}-, methyl ester], the “herbicidal effect rating, ECHORC” value was 7.7 in data set [1] (setting [9]), 9.0 in data set [1] (setting [10]), 9.0 in data set [1] (setting [11]) and 9.0 in data set [1] (setting [12]). Also, the “herbicidal effect rating, CYPIR” value with Cyperus iria (setting [9]) was determined as 8.0; in the data set with Cyperus iria (setting [10]), 8.7; with Cyperus iria (setting [11]), 9.0; with Cyperus iria (setting [12]) it was 9.0. For the same compound, the “herbicidal effect rating, CYPSE” value is 4.7 in data set [2] (setting [9]), 9.0 in data set [2] (setting [10]), 7.3 in data set [2] (setting [11]) and 9.0 in data set [2] (setting [12]). Besides, the “herbicidal effect rating, MOOVA” value turned out to be 8.0 in data set [3] (setting [9]), 9.0 in data set [3] (setting [10]), 9.0 in data set [3] (setting [11]) and 9.0 in data set [3] (setting [12]). In addition, the “herbicidal effect rating, SAGPY” value in the data set on Sagittaria pygmaea, L. (setting [9]) was found to be 4.0; with Sagittaria pygmaea, L. (setting [10]) it was 4.3; in the data set on Sagittaria pygmaea, L. (setting [11]) it was 6.3; in the data set on Sagittaria pygmaea, L. (setting [12]), 9.0. In addition, the “herbicidal effect rating ORYSAT” value was 2.7 in data set [4] (Rate 0.0320 kg/ha), 3.0 in data set [4] (Rate 0.0620 kg/ha), 3.7 in data set [4] (Rate 0.1250 kg/ha) and 4.0 in data set [4] (Rate 0.2500 kg/ha).

Take `Cc1ccc(OC(C)C(=O)NS(C)(=O)=O)c(-c2nsc3ccc(-n4c(=O)cc(C(F)(F)F)n(C)c4=O)cc23)c1` (centres unmarked) [Example 572, Propionamide, 2-{{2-{5-[3,6-dihydro-3-methyl-2,6-dioxo-4-(trifluoromethyl)-1(2H)-pyrimidinyl)-1,2-benzisothiazol-3-yl}-p-tolyl}oxy}-N-(methylsulfonyl)-]: the “herbicidal effect rating, ECHORC” value stood at 0.0 in data set [1] (setting [5]), 0.0 in data set [1] (setting [6]), 2.0 in data set [1] (setting [7]) and 6.0 in data set [1] (setting [8]). Besides, the “herbicidal effect rating, CYPIR” value in the data set on Cyperus iria (setting [5]) is on record as 0.0; in the data set with Cyperus iria (setting [6]), 0.0; with Cyperus iria (setting [7]), 2.0; in the data set on Cyperus iria (setting [8]), 5.0. The “herbicidal effect rating, CYPSE” value was 0.0 in data set [2] (setting [5]), 0.0 in data set [2] (setting [6]), 0.0 in data set [2] (setting [7]) and 2.0 in data set [2] (setting [8]). Also, the “herbicidal effect rating, MOOVA” value in data set [3] (setting [5]) came to 0.0; in data set [3] (setting [6]), 6.0; in data set [3] (setting [7]) it was 6.0; in data set [3] (setting [8]) it was 9.0. For the same compound, the “herbicidal effect rating, SAGPY” value is 0.0 in the data set with Sagittaria pygmaea, L. (setting [5]); 0.0 in the data set with Sagittaria pygmaea, L. (setting [6]); 0.0 in the data set on Sagittaria pygmaea, L. (setting [7]); 3.0 with Sagittaria pygmaea, L. (setting [8]). Further, the “herbicidal effect rating ORYSAT” value in data set [4] (Rate 0.0320 kg/ha) was determined as 0.0; in data set [4] (Rate 0.0620 kg/ha), 1.0; in data set [4] (Rate 0.1250 kg/ha), 3.0; in data set [4] (Rate 0.2500 kg/ha) it was 6.0.
